In one assay the test system is KB-3-1. In words: Cell survival assay (SRB), KB-3-1. It counts as cell-based, human. The settings on record: Homo sapiens, KB 3-1, KB-3-1 cells (paclitaxel-sensitive parent); read-out: In vitro IC50 (nM) KB-3-1. In short, it runs like this:
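IC50 for 50% growth inhibition after 3-day compound exposure, tested in duplicate. SRB protein staining of TCA-fixed cells (10% TCA, 1 hr, 4 °C), solubilised in Tris base and read by absorbance, was used as the survival read-out, with KB-3-1 grown in 20% FCS.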

Another assay relates to KB-V1 (MDR1++). As to the kind of experiment: Cell survival assay (SRB), KB-V1 (MDR1++). The settings on record: for IC50: Homo sapiens.
The subject of the next assay is KB-8-5 (MDR1+). In words: Cell survival assay (SRB), KB-8-5 (MDR1+). The settings on record: for IC50: Homo sapiens, MDR1, read-out: In vitro IC50 (nM) KB85.
[1] abbreviates: read-out: In vitro IC50 (nM) KBV1.

These results are taken from patent publication US20040121965A1, “Method of treating resistant tumors” (Wyeth Holdings Corporation, priority 2002, published 2004).

Where two headings read alike, the source gives them in different places. Bounds are passed on as bounds.

The term IC50 denotes the midpoint of a concentration-inhibition curve. Take `CN[C@H](C(=O)N[C@H](C(=O)N(C)[C@H](/C=C(\C)C(=O)O)C(C)C)C(C)(C)C)C(C)(C)c1cccc(Br)c1` [Example 37, 3-bromo-N,β,β-trimethyl-L-phenylalanyl-N^1-[(1S,2E)-3-carboxy-1-isopropylbut-2-enyl]-N^1,3-dimethyl-L-valinamide]: the figures for the concentration for half-maximal inhibition (IC50) with KB-3-1, with KB-V1 (MDR1++) (setting [1]) and in the assay with KB-8-5 (MDR1+) were 1.8 nM, 148 nM and 4.1 nM, respectively. The “Ratio KBV1/KB” value with KB-V1 (MDR1++) was determined as 82.2. The “Ratio KB85/KB” value with KB-8-5 (MDR1+) is listed as 2.3.

As for `CN[C@H](C(=O)N[C@H](C(=O)N(C)[C@H](/C=C(\C)C(=O)O)C(C)C)C(C)(C)S(C)(=O)=O)C(C)(C)c1ccccc1` [Example 81, N,β,β-trimethyl-L-phenylalanyl-N^1-[(1S,2E)-3-carboxy-1-isopropyl-2-butenyl]-N^1-methyl-3-(methylsulfonyl)-L-valinamide], the figures for the half-inhibitory concentration (IC50) in the assay with KB-3-1, in the assay on KB-V1 (MDR1++) (setting [1]) and with KB-8-5 (MDR1+) were 178 nM, not below 3000 nM and 589 nM, respectively. The “Ratio KBV1/KB” value in the assay on KB-V1 (MDR1++) is 16.9. Also, the “Ratio KB85/KB” value in the assay on KB-8-5 (MDR1+) is reported as 3.3.

`CN[C@H](C(=O)N[C@H](C(=O)N(C)[C@H](/C=C(\C)C(=O)O)C(C)C)C(C)(C)C)C(C)(C)c1ccccc1OC` [Example 55, 2-Methoxy-N,β,β-trimethyl-L-phenylalanyl-N^1-[(1S,2E)-3-carboxy-1-isopropyl-2-butenyl]-N^1,3-dimethyl-L-valinamide]: the concentration for half-maximal inhibition (IC50) amounted to 1.7 nM with KB-3-1, 190 nM in the assay with KB-V1 (MDR1++) (setting [1]) and 4.4 nM in the assay with KB-8-5 (MDR1+). Besides, the “Ratio KBV1/KB” value in the assay with KB-V1 (MDR1++) is 112.1. Besides, in the assay with KB-8-5 (MDR1+), the “Ratio KB85/KB” value is on record as 2.6.

In the case of `CCOC(=O)/C(C)=C/[C@H](C(C)C)N(C)C(=O)[C@@H](NC(=O)[C@H](NC)C(C)(C)c1ccc(C)cc1)C(C)(C)C` [Example 10b, N,β,β,4-tetramethyl-D-phenylalanyl-N^1-[(1S,2E)-4-ethoxy-1-isopropyl-3-methyl-4-oxo-2-butenyl]-N^1,3-dimethyl-L-valinamide], the values for the IC50 in the assay on KB-3-1, in the assay with KB-V1 (MDR1++) (setting [1]) and with KB-8-5 (MDR1+) were 447 nM, not below 3000 nM and 1740 nM, respectively. Also, in the assay on KB-V1 (MDR1++), the “Ratio KBV1/KB” value is given as 6.7. The “Ratio KB85/KB” value in the assay with KB-8-5 (MDR1+) is listed as 3.9.

In the case of `CCOC(=O)/C(C)=C/[C@H](C(C)C)N(C)C(=O)[C@@H](NC(=O)[C@@H](NC)C(C)(C)c1ccc(OC)cc1OC)C(C)(C)C` [Example 58, 2-Methoxy-N,O,β,β,tetramethyl-L-tyrosyl-N^1-[(1S,2E)-4-ethoxy-1-isopropyl-3-methyl-4-oxo-2-butenyl]-N^1,3-dimethyl-L-valinamide], the IC50 with KB-3-1 was 144 nM; in the assay on KB-V1 (MDR1++) (setting [1]), not below 3000 nM; with KB-8-5 (MDR1+), 1700 nM. Also, the “Ratio KBV1/KB” value with KB-V1 (MDR1++) came out at 20.8. In the assay with KB-8-5 (MDR1+), the “Ratio KB85/KB” value was 11.7.

For `CCOC(=O)/C(C)=C/[C@H](C(C)C)N(C)C(=O)[C@@H](NC(=O)C(NC)C(C)(C)c1csc2ccccc12)C(C)(C)C` (stereo partly drawn) [Example 25, 3-(1-Benzothien-3-yl)-N-methylvalyl-N^1-[(l S,2E)-4-ethoxy-1-isopropyl-3-methyl4-oxo-2-butenyl]-N^1,3-dimethyl-L-valinamide], the IC50 amounted to 479 nM in the assay on KB-3-1, 2950 nM with KB-V1 (MDR1++) (setting [1]) and 1510 nM in the assay with KB-8-5 (MDR1+). In addition, the “Ratio KBV1/KB” value in the assay with KB-V1 (MDR1++) worked out at 6.2. The “Ratio KB85/KB” value with KB-8-5 (MDR1+) turned out to be 3.2.

Take `CN[C@@H](C(=O)N[C@H](C(=O)N(C)[C@H](/C=C(\C)C(=O)O)C(C)C)C(C)(C)C)C(C)(C)c1cccc(C(F)(F)F)c1` [Example 63, N,β,β-Trimethyl-3-(trifluoromethyl)-D-phenylalanyl-N^1-[(1S,2E)-3-carboxy-1-isopropyl-2-butenyl]-N^1,3-dimethyl-L-valinamide]: the IC50 with KB-3-1 worked out at 19.1 nM; in the assay on KB-V1 (MDR1++) (setting [1]), 1320 nM; with KB-8-5 (MDR1+) it was 45.7 nM. Moreover, the “Ratio KBV1/KB” value with KB-V1 (MDR1++) turned out to be 69.0. Further, the “Ratio KB85/KB” value with KB-8-5 (MDR1+) was determined as 2.4.

As for `CCN(C(=O)[C@@H](NC(=O)[C@@H](NC)C(C)(C)c1ccccc1)C(C)(C)C)[C@H](/C=C(\C)C(=O)O)C(C)C.O=C(O)C(F)(F)F` [Example 94, N,β,β-trimethyl-L-phenylalanyl-N^1-[(1S,2E)-3-carboxy-1-isopropylbut-2-enyl]-N^1-ethyl-3-methyl-L-valinamide Trifluoroacetic Acid], the IC50 in the assay on KB-3-1 is 109 nM; in the assay on KB-V1 (MDR1++) (setting [1]), not below 3000 nM; in the assay with KB-8-5 (MDR1+) it was 197 nM. In the assay with KB-V1 (MDR1++), the “Ratio KBV1/KB” value was determined as 27.5. Also, the “Ratio KB85/KB” value in the assay with KB-8-5 (MDR1+) is listed as 1.8.

`C=CC[C@@H](/C=C(\C)C(=O)O)N(C)C(=O)[C@@H](NC(=O)[C@@H](NC)C(C)(C)c1ccccc1)C(C)(C)C` [Example 119, N,β,β-trimethyl-L-phenylalanyl-N^1-[(1S,2E)-1-allyl-3-carboxybut-2-enyl]-N^1,3-dimethyl-L-valinamide]: the IC50 was 55 nM in the assay with KB-3-1, more than 3000 nM with KB-V1 (MDR1++) (read-out: In vitro IC50 KBV1) and 164 nM with KB-8-5 (MDR1+). Besides, the “Ratio KB85/KB” value with KB-8-5 (MDR1+) amounted to 3.0.

For `CN[C@H](C(=O)N[C@H](C(=O)N[C@H](/C=C(\C)C(=O)O)C(C)C)C(C)C)C(C)(C)c1ccccc1.O=C(O)C(F)(F)F` [Example 102, N,β,β-trimethyl-L-phenylalanyl-N^1-[(1S,2E)-3-carboxy-1-isopropylbut-2-enyl]-L-valinamide Trifluoroacetic Acid], the values for the 50% inhibitory concentration (IC50) in the assay on KB-3-1, with KB-V1 (MDR1++) (setting [1]) and in the assay on KB-8-5 (MDR1+) were 371 nM, not below 3000 nM and 618 nM, respectively. Besides, the “Ratio KBV1/KB” value with KB-V1 (MDR1++) was 8.1. For the same molecule, the “Ratio KB85/KB” value in the assay on KB-8-5 (MDR1+) is 1.7.

Take `CNC(=O)/C(C)=C/[C@H](C(C)C)N(C)C(=O)[C@@H](NC(=O)[C@@H](NC)C(C)(C)c1ccccc1)C(C)(C)C` [Example 108, (E,4S)-4-[((2S)-3,3-dimethyl-2-{[(2S)-3-methyl-2-(methylamino)-3-phenylbutanoyl]amino}butanoyl)(methyl)amino]-N,2,5-trimethyl-2-hexenamide]: the IC50 was 68.3 nM in the assay on KB-3-1, 1590 nM in the assay with KB-V1 (MDR1++) (setting [1]) and 129 nM in the assay on KB-8-5 (MDR1+). The “Ratio KBV1/KB” value in the assay on KB-V1 (MDR1++) is on record as 23.3. Further, in the assay with KB-8-5 (MDR1+), the “Ratio KB85/KB” value came to 1.9.

`CN[C@@H](C(=O)N[C@H](C(=O)N(C)[C@H](/C=C(\C)C(=O)O)C(C)C)C(C)(C)C)C(C)(C)c1ccsc1` [Example 24, N-Methyl-3-thien-3-yl-D-valyl-N^1-[(1S,2E)-3-carboxy-1-isopropylbut-2-enyl]-N^1,3-dimethyl-L-valinamide]: the values for the half-maximal inhibitory concentration (IC50) with KB-3-1, in the assay on KB-V1 (MDR1++) (setting [1]) and in the assay with KB-8-5 (MDR1+) were 9.5 nM, 1740 nM and 22.4 nM, respectively. For the same molecule, in the assay with KB-V1 (MDR1++), the “Ratio KBV1/KB” value was 182.9. The “Ratio KB85/KB” value in the assay with KB-8-5 (MDR1+) turned out to be 2.4.

Regarding `CN[C@@H](C(=O)N[C@H](C(=O)N(C)[C@H](/C=C(\C)C(=O)O)C(C)C)C(C)(C)C)C(C)(C)c1ccccc1C` [Example 36, N,β,β,2-Tetramethyl-D-phenylalanyl-N^1-[(1S,2E)-3-carboxy-1-isopropyl-2-butenyl]-N^1,3-dimethyl-L-valinamide], the figures for the concentration for half-maximal inhibition (IC50) in the assay with KB-3-1, with KB-V1 (MDR1++) (setting [1]) and with KB-8-5 (MDR1+) were 6 nM, 501 nM and 13.8 nM, respectively. Besides, the “Ratio KBV1/KB” value in the assay with KB-V1 (MDR1++) amounted to 83.5. Also, the “Ratio KB85/KB” value in the assay on KB-8-5 (MDR1+) came to 2.3.

With `CNC(C(=O)NC(C(=O)N(C)C(C=C(C)C(=O)O)C(C)C)C(C)(C)C)C(C)c1ccccc1.O=C(O)C(F)(F)F` (stereo not drawn) [Example 100, 4-{[3,3-Dimethyl-2-(2-methylamino-3-phenyl-butyrylamino)-butyryl]-methyl-amino}-2,5-dimethyl-hex-2-enoic Acid Trifluoroacetic Acid], the figures for the IC50 in the assay with KB-3-1, with KB-V1 (MDR1++) (setting [1]) and with KB-8-5 (MDR1+) were 114 nM, not below 3000 nM and 197 nM, respectively. Moreover, the “Ratio KBV1/KB” value in the assay with KB-V1 (MDR1++) was determined as 26.2. The “Ratio KB85/KB” value in the assay on KB-8-5 (MDR1+) stood at 1.7.

Consider `CCOC(=O)/C(C)=C/[C@H](C(C)C)N(C)C(=O)/C(C)=C/[C@H](C(C)C)N(C)C(=O)[C@@H](NC(=O)[C@@H](NC)C(C)(C)c1ccccc1)C(C)(C)C` [Example 113, N,β,β-trimethyl-L-phenylalanyl-N^1-{(1S,2E)-4-[[(1S,2E)-4-ethoxy-1-isopropyl-3-methyl-4-oxobut-2-enyl](methyl)amino]-1-isopropyl-3-methyl-4-oxobut-2-enyl}-N^1,3-dimethyl-L-valinamide], for which the IC50 in the assay with KB-3-1 is 18 nM; in the assay with KB-V1 (MDR1++) (setting [1]) it was 582 nM; in the assay with KB-8-5 (MDR1+), 34 nM. In addition, the “Ratio KBV1/KB” value in the assay with KB-V1 (MDR1++) is reported as 32.3. Also, the “Ratio KB85/KB” value with KB-8-5 (MDR1+) is 1.9.

In the case of `CN[C@H](C(=O)N[C@H](C(=O)N(C)[C@H](/C=C(\C)C(=O)O)C(C)C)C(C)(C)C)[C@H](C)c1ccccc1` [Example 154, (βR)-N,β-dimethyl-L-phenylalanyl-N^1-[(1S,2E)-3-carboxy-1-isopropylbut-2-enyl]-N^1,3-dimethyl-L-valinamide], the IC50 with KB-3-1 is 438 nM; in the assay on KB-V1 (MDR1++) (setting [1]), more than 3000 nM; in the assay with KB-8-5 (MDR1+), 584 nM. For the same molecule, the “Ratio KBV1/KB” value in the assay on KB-V1 (MDR1++) is 6.8. Also, the “Ratio KB85/KB” value in the assay with KB-8-5 (MDR1+) is listed as 1.3.

Regarding `CN[C@H](C(=O)N[C@H](C(=O)N(C)[C@H](/C=C(\C)C(=O)O)C(C)C)C(C)(C)C)C(C)(C)c1cccc(F)c1` [Example 60, 3-Fluoro-N,β,β-trimethyl-L-phenylalanyl-N^1-[(1S,2E)-3-carboxy-1-isopropyl-2-butenyl]-N^1,3-dimethyl-L-valinamide], the 50% inhibitory concentration (IC50) in the assay with KB-3-1 worked out at 0.997 nM; with KB-V1 (MDR1++) (setting [1]), 77 nM; in the assay on KB-8-5 (MDR1+) it was 1.8 nM. For the same molecule, the “Ratio KBV1/KB” value with KB-V1 (MDR1++) is given as 77.4. In addition, the “Ratio KB85/KB” value with KB-8-5 (MDR1+) turned out to be 1.8.
